Experimental data from patent US20220281860A1, “COMPOUNDS AND METHODS OF TREATING RNA-MEDIATED DISEASES” (Arrakis Therapeutics, Inc., priority 2016, published 2022).

Assays:
[1] = system: Split3WJ.2 up_5IB+Split3WJ.2_down_3FAM (trans 3WJ as 1:1 mix); assay: Fluorescence quenching binding assay; settings: trans 3WJ Split3WJ.2; two concentration points; FIG. 109
Method: (§1) This assay will be used to test binding of compounds for RNA three way junction (such as a 38 nt construct). This is a fluorescence quenching assay utilizing FAM as fluorescence tag and Iowa Black as quencher. Tags are attached at the 3′ and 5′ end, respectively. Stable formation of MW upon compound binding would lead to quenching of the FAM fluorescence due to close proximity of the Iowa Black tag. Assay readout: FAM (485-520 nm) Fluorescence Intensity.
(§2) Assay sample buffer used: 10 mM CacoK pH 7.2, 30 mM NaCl. Buffer preparation in Dnase/Rnase Free distilled water (Gibco Life Technologies).
(§3) Tool compounds provided as dry powder are prepared as 50 mM stock solution in 100% d6-DMSO. Stock solutions of 50 mM concentration in d6-DMSO are stored at RT.
(§4) Sample plate: Greiner cat #784076, black, 384 (Dilution plate: Greiner REF 781101, PS-Microplate, 384 well, clear). Fluorescence Intensity device: Envision 1040285
(§5) Daily fresh (10 ml): 1 ml 100 mM CacoK pH 7.2 and 0.3 ml 1 M NaCl filled up to 10 ml with Dnase/Rnase Free distilled water […]
(§6) Calibration of the expected fluorescence signal at various RNA concentrations in either CacoK or NaPO4 buffers was performed first. Experiments in buffers containing salt show distinct fluorescence quenching behavior. […]
(§7) The fluorescence quenching experiment was repeated for compounds Ark0000013 and Ark0000014 to measure binding with: […]

[2] = system: RNA3WJ_1.0.0_5IB_3FAM (cis 3WJ with one unpaired nucleotide); assay: Thermal shift binding assay; settings: RNA3WJ_1.0.0_5IB_3FAM; for Melting temp [° C.] + cmpd / Temp. Shift [° C.]: 1 μM RNA, 8 μM compound, 1% DMSO, 10 mM CacoK pH 7.2, 30 mM NaCl
Text: (§8) Purpose: Test binding of compounds for RNA three way junction (for example, a construct of 38 nt). Thermal shift assay based on established fluorescence quenching assay utilizing FAM as fluorescence tag and Iowa Black as quencher. Tags were attached at the 3′ and 5′ end, respectively. Stable formation of 3WJ upon compound binding would lead to quenching of the FAM fluorescence due to close proximity of the Iowa Black tag. Thermal unfolding leads to increase of fluorescence emission. Assay readout: FAM (465-510 nm) Thermal Shift.
as §2, §3
(§9) Sample plate: Roche, Light Cycler480 Multiwell Plate96, white, REF 04729692001. (Dilution plate: Greiner REF 781101, PS-Microplate, 384 well, clear). Thermal Shift device: Roche, Light Cycler480.
(§10) Daily fresh (10 ml): 1 ml 100 mM CacoK pH 7.2 and 0.3 ml 1 M NaCl filled up to 10 ml with Dnase/Rnase Free distilled water.
(§11) Dilute the RNA 1:10 (final 10 μM) in Assay Buffer.
(§12) Heat up the diluted RNA up to 90° C. for 5 min (sealed Eppendorf Tube).
(§13) Cool down the RNA probe slowly to RT.
(§14) Dilute the compounds to 800 μM in DMSO (Assay: 8 μM).
(§15) 78.4 μL Assay Buffer are pipetted into Greiner REF 781101, PS-Microplate, 384 (each well needed).
(§16) Add 0.8 μL of the RNA-Solution ([…]).
(§17) Add 0.8 μL Compound-Solution ([…]).
(§18) Final concentrations in the sample: 1 μM RNA, 8 μM compound, 1% DMSO
(§19) Pipet 20 μL Sample Solution into Roche, Light Cycler480 Multiwell Plate96, white, REF 04729692001.
(§20) When sample transfer is finished, seal the plate with a clear topseal (part of REF 04729692001).
(§21) Centrifuge the plate with a table-top device to spin down the samples.
(§22) Measure the 96 plate with the LightCycler480 (Channel: 480/510 nm; Temperature: 41-91° C.).
(§23) Analyse measurement-data with the MeltingCurveGenotyping Mode.
(§24) Settings: Acquisition mode: continuous; Ramp rate: 0.1 C.°/sec; Acquisition: 6/C.° Melt Curve Genotyping for All Samples
(§25) Melting curves analysis show melting temperature (Tm) of ˜51° C. Range of RNA concentrations was tested and assay window was determined (conc. range of 0.5-1 μM yields best results). The choice of buffer also affected the Tm. RNA constructs were tested under different buffer conditions (especially in presence of salt) in the thermal shift assay. […] CacoK with 30 mM salt at 1 μM RNA conc. was used to assess compound effects on 3WJ stability. […] These conditions were used for screening test compounds.
(§26) Compounds Ark0000013 and Ark0000014 were also tested in the thermal shift assay against three RNA 3WJ constructs, A) RNA3WJ_1.0.0_5IB_3FAM (cis 3WJ with one unpaired nucleotide); B) Split3WJ.1_up_5IB+Split3WJ.1_down_3FAM (trans 3WJ as 1:1 mix); and C) Split3WJ.2_up_5IB+Split3WJ.2_down_3FAM (trans 3WJ as 1:1 mix).

[3] = system: Split3WJ.1_up_5IB+Split3WJ.1_down_3FAM (trans 3WJ as 1:1 mix; Split3WJ_1); assay: Thermal shift binding assay; settings: Split3WJ_1 (trans 3WJ), 1 μM RNA, 8 μM compound
Text: as §8, §2, §3, §9, §10, §11, §12, §13, §14, §15, §16, §17, §18, §19, §20, §21, §22, §23, §24, §25, §26

[4] = system: Split3WJ.2_up_5IB+Split3WJ.2_down_3FAM (trans 3WJ as 1:1 mix; Split3WJ_2); assay: Thermal shift binding assay; settings: Split3WJ_2 (trans 3WJ), 1 μM RNA, 8 μM compound
Text: as §8, §2, §3, §9, §10, §11, §12, §13, §14, §15, §16, §17, §18, §19, §20, §21, §22, §23, §24, §25, §26

[5] = system: RNA3WJ_1.0.0_5IB_3FAM (cis 3WJ with one unpaired nucleotide); assay: Fluorescence quenching binding assay; settings: cis 3WJ RNA3WJ_1.0.0_5IB_3FAM; two concentration points; FIG. 109
Method: as §1, §2, §3, §4, §5, §6, §7

RNA3WJ_3.0.0_5IB_3FAM = assay: Thermal shift binding assay; settings: 1 μM RNA, 8 μM compound
Text: as §8, §2, §3, §9, §10, §11, §12, §13, §14, §15, §16
Add 0.8 μL Compound-Solution ([…]). […]
as §19, §20, §21, §22, §23, §24, §25

| Melting temp [° C.] + cmpd [2] [°C] | Temp. Shift [° C.] [2] [°C] | Melting temp [° C.] + cmpd ([2]; listed as Ark000014) [°C] | Temp. Shift [° C.] ([2]; listed as Ark000014) [°C] | Melting temp [° C.] + cmpd [3] [°C] | Temp. Shift [° C.] [3] [°C] | Melting temp [° C.] + cmpd ([3]; listed as Ark000014) [°C] | Temp. Shift [° C.] ([3]; listed as Ark000014) [°C] | Melting temp [° C.] + cmpd [4] [°C] | Temp. Shift [° C.] [4] [°C] | Melting temp [° C.] + cmpd ([4]; listed as Ark000014) [°C] | Temp. Shift [° C.] ([4]; listed as Ark000014) [°C] | Melting temp [° C.] + cmpd (RNA3WJ_3.0.0_5IB_3FAM) [°C] | Temp. Shift [° C.] (RNA3WJ_3.0.0_5IB_3FAM) [°C] | Effect in the melting curves (in words) ([2]; FIG. 111, listed as Ark000013) | Temp. Shift [° C.] ([3]; listed as Ark000013) [°C] | Temp. Shift [° C.] ([4]; listed as Ark000013) [°C] | Structure (SMILES) | Effect in fluorescence quenching assay [1] | Effect in fluorescence quenching assay [5] |
| --- | --- | --- | --- | --- | --- | --- | --- | --- | --- | --- | --- | --- | --- | --- | --- | --- | --- | --- | --- |
| 68.1 | 2.5 | 68.4 | ~3 | 37.8 | 0.3 | 38.8 | ~1 | 44.0 | −0.3 | 44.7 | ~1 | 63.9 | 1.9 |  |  |  | NCCCCCCCNC(=O)c1ccc2c(c1)C1c3cc(C(=O)NCCCCCCCN)ccc3C2c2ccc(C(=O)NCCCCCCCN)cc21 [Ark0000014, N^2,N^7,N^15-tris(7-aminoheptyl)-9,10-dihydro-9,10-[1,2]benzenoanthracene-2,7,15-tricarboxamide] | smaller effect on the RNA constructs (Split3WJ_2 shows larger effect) | smaller effect |
| 87.0 | 21.4 |  |  | 58.2 | 20.4 |  |  | 56.9 | 12.2 |  |  | 83.7 | 21.7 | significant effect | ~21 | ~13 | CN(CCCN)CCCNC(=O)c1ccc2c(c1)C1c3cc(C(=O)NCCCN(C)CCCN)ccc3C2c2ccc(C(=O)NCCCN(C)CCCN)cc21 [Ark0000013, N^2,N^7,N^15-tris(3-((3-aminopropyl)(methyl)amino)propyl)-9,10-dihydro-9,10-[1,2]benzenoanthracene-2,7,15-tricarboxamide] | significant concentration dependent effect | significant concentration dependent effect |
